Measured values from the NIST ThermoML archive (doi:10.1016/j.fluid.2018.05.018).
± gives the expanded uncertainty stated by the source.

Conditions: Crystal; visual observation

Normal melting temperature: 134 ± 4 °C
SMILES: CCOC(=O)N1CCC(=C2c3ccc(Cl)cc3CCc3cccnc32)CC1 [claritine]
